Counter-ions that a name gives are not always drawn.
Biological target: 5HT3a receptor expressed in HEK-293T cells (Homo sapiens (Human), UniProt P46098)
Test: Inhibition of Ca flux activity of 5HT3 in vitro assay
Assay type: cell-based
Details: calcium flux, 5HT 216 nM, approximate values
Method in brief: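 HEK-293T cells transiently transfected with human 5HT3a, loaded 1 hour at 37° C with calcium dye in HBSS/20 mM HEPES, preincubated with compound (10^−7 to 10^−10, half-log) 10 minutes at room temperature.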

5HT3a receptor expressed in HEK-293T cells, sequence (P46098 24-478): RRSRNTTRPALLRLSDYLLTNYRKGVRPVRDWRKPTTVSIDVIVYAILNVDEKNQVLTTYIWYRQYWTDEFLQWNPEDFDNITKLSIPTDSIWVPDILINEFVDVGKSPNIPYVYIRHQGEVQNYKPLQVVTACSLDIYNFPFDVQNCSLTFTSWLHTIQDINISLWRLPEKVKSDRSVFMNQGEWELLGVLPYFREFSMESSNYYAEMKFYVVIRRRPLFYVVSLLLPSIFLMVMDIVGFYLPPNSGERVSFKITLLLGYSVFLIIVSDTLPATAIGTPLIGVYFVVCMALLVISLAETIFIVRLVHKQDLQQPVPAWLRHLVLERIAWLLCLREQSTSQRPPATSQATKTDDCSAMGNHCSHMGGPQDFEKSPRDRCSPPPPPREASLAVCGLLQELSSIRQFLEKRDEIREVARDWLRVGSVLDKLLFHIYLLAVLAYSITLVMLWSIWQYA

Row | Molecule | IC50 [nM]
1 | CN1[C@@H]2COC[C@H]1C[C@@H](NC(=O)c1cn(-c3nccs3)c3ncccc13)C2 [Example 146, N-((1R,5S,7s)-9-methyl-3-oxa-9-azabicyclo[3.3.1]nonan-7-yl)-1-(thiazol-2-yl)-1H-pyrrolo[2,3-b]pyridine-3-carboxamide, 2,2,2-trifluoroacetic acid salt] | 0.702
2 | CN1[C@@H]2CC[C@H]1CC(OC(=O)c1c(Cl)n(CCF)c3ccccc13)C2 (stereo partly drawn) [Example 55, (1R,3R,5S)-8-methyl-8-azabicyclo[3.2.1]octan-3-yl 2-chloro-1-(2-fluoroethyl)-1H-indole-3-carboxylate, 2,2,2-trifluoroacetate] | 0.9
3 | CN(C(=O)c1cn(-c2cnsc2)c2ccccc12)C1C[C@H]2COC[C@@H](C1)N2C (stereo partly drawn) [Example 186, 1-(isothiazol-4-yl)-N-methyl-N-((1R,5S,7S)-9-methyl-3-oxa-9-azabicyclo[3.3.1]nonan-7-yl)-1H-indole-3-carboxamide] | 1.5
4 | CN1[C@@H]2CC[C@H]1CC(OC(=O)c1cn(CC(F)F)c3ncccc13)C2 (stereo partly drawn) [Example 72, (1R,3R,5S)-8-methyl-8-azabicyclo[3.2.1]octan-3-yl 1-(2,2-difluoroethyl)-1H-pyrrolo[2,3-b]pyridine-3-carboxylate, 2,2,2-trifluoroacetate] | 3.59
5 | CN1[C@@H]2CCC[C@H]1CC(OC(=O)c1cn(CC(F)F)c3ccc(F)cc13)C2 (stereo partly drawn) [Example 60, (1R,3R,5S)-9-methyl-9-azabicyclo[3.3.1]nonan-3-yl 1-(2,2-difluoroethyl)-5-fluoro-1H-indole-3-carboxylate, 2,2,2-trifluoroacetate] | 0.44
6 | CN1[C@@H]2COC[C@H]1C[C@@H](NC(=O)c1cn(-c3cnccn3)c3ccccc13)C2 [Example 129, N-((1R,5S,7S)-9-methyl-3-oxa-9-azabicyclo[3.3.1]nonan-7-yl)-1-(pyrazin-2-yl)-1H-indole-3-carboxamide, di-2,2,2-trifluoroacetate] | 0.64
7 | CN1[C@@H]2CC[C@H]1CC(NC(=O)c1cn(CC(F)F)c3ccc(F)cc13)C2 (stereo partly drawn) [Example 75, 1-(2,2-difluoroethyl)-5-fluoro-N-((1R,3R,5S)-8-methyl-8-azabicyclo[3.2.1]octan-3-yl)-1H-indole-3-carboxamide, 2,2,2-trifluoroacetate] | 3.15
8 | CN1[C@@H]2CC[C@H]1C[C@@H](NC(=O)c1nn(CC(F)F)c3ccccc13)C2 [Example 90, 1-(2,2-difluoroethyl)-N-((1R,3R,5S)-8-methyl-8-azabicyclo-[3.2.1]octan-3-yl)-1H-indazole-3-carboxamide, 2,2,2-trifluoroacetate] | 0.75
9 | CN1C2COCC1CC(NC(=O)c1cn(-c3ccns3)c3ccccc13)C2 [Example 158, 1-(isothiazol-5-yl)-N-((1R,5S,7s)-9-methyl-3-oxa-9-azabicyclo[3.3.1]nonan-7-yl)-1H-indole-3-carboxamide, 2,2,2-trifluoroacetic acid salt] | 1.36
10 | CN1[C@@H]2COC[C@H]1CC(NC(=O)c1cn(CC(F)F)c3ccc(F)cc13)C2 (stereo partly drawn) [Example 113, 1-(2,2-difluoroethyl)-5-fluoro-N-((1R,5S,7S)-9-methyl-d3-3-oxa-9-azabicyclo[3.3.1]nonan-7-yl)-1H-indole-3-carboxamide, 2,2,2-trifluoroacetate] | 0.23
11 | CN1[C@@H]2CCC[C@H]1CC(OC(=O)c1cn(CC(F)(F)F)c3ccc(F)cc13)C2 (stereo partly drawn) [Example 89, (1R,3R,5S)-9-methyl-9-azabicyclo[3.3.1]nonan-3-yl 5-fluoro-1-(2,2,2-trifluoroethyl)-1H-indole-3-carboxylate, 2,2,2-trifluoroacetate] | 0.66
12 | (1R,5S,7s)-9-methyl-3-oxa-9-azabicyclo[3.3.1]nonan-7-yl 1-(6-fluoropyridazin-3-yl)-1H-indole-3-carboxylate [Example 25] | 3.88
13 | CN1C2COCC1CC(NC(=O)c1cn(-c3ccsn3)c3ccccc13)C2 [Example 153, 1-(isothiazol-3-yl)-N-((1R,5S,7s)-9-methyl-3-oxa-9-azabicyclo[3.3.1]nonan-7-yl)-1H-indole-3-carboxamide, 2,2,2-trifluoroacetic acid salt] | 0.87
14 | CC(C)S(=O)(=O)n1cc(C(=O)NC2CC3COCC(C2)N3C)c2cc(F)ccc21 [Example 93, 5-fluoro-1-(isopropylsulfonyl)-N-((1R,5S,7S)-9-methyl-3-oxa-9-azabicyclo[3.3.1]nonan-7-yl)-1H-indole-3-carboxamide, 2,2,2-trifluoroacetate] | 1.39
15 | CCS(=O)(=O)n1cc(C(=O)OC2C[C@H]3COC[C@@H](C2)N3)c2ccccc21 (stereo partly drawn) [Example 133, (1R,5S,7S)-3-oxa-9-azabicyclo[3.3.1]nonan-7-yl 1-(ethylsulfonyl)-1H-indole-3-carboxylate, 2,2,2-trifluoroacetate] | 1.5
16 | O=C(NC1C[C@H]2COC[C@@H](C1)N2)c1cn(CC(F)(F)F)c2ncccc12 (stereo partly drawn) [Example 38, N-((1R,5S,7S)-3-oxa-9-azabicyclo[3.3.1]nonan-7-yl)-1-(2,2,2-trifluoroethyl)-1H-pyrrolo[2,3-b]pyridine-3-carboxamide, 2,2,2-trifluoroacetate] | 1.82
17 | CN1[C@@H]2COC[C@H]1CC(NC(=O)c1cn(-c3cnccn3)c3ccccc13)C2 (stereo partly drawn) [Example 130, N-((1R,5S,7S)-9-methyl-d3-3-oxa-9-azabicyclo[3.3.1]nonan-7-yl)-1-(pyrazin-2-yl)-1H-indole-3-carboxamide] | 0.55
18 | O=C(OC1C[C@H]2COC[C@@H](C1)N2)c1cn(-c2nccs2)c2ccccc12 (stereo partly drawn) [Example 128, (1R,5S,7S)-3-oxa-9-azabicyclo[3.3.1]nonan-7-yl 1-(thiazol-2-yl)-1H-indole-3-carboxamide, 2,2,2-trifluoroacetate] | 2.16
19 | CS(=O)(=O)n1cc(C(=O)O[C@H]2C[C@H]3COC[C@@H](C2)N3)c2cc(F)ccc21 [Example 132, (1R,5S,7S)-3-oxa-9-azabicyclo[3.3.1]nonan-7-yl 5-fluoro-1-(methylsulfonyl)-1H-indole-3-carboxylate, 2,2,2-trifluoroacetate] | 2.3
20 | CN1C2COCC1CC(NC(=O)c1cn(CC(F)(F)F)c3ccc(F)cc13)C2 [Example 35, 5-fluoro-N-((1R,5S,7S)-9-methyl-3-oxa-9-azabicyclo[3.3.1]nonan-7-yl)-1-(2,2,2-trifluoroethyl)-1H-indole-3-carboxylate, 2,2,2-trifluoroacetate] | 0.54
21 | CN1C2CCC1CC(NC(=O)c1cn(CC(F)(F)F)c3ncccc13)C2 [Example 102, N-((1R,3R,5S)-8-methyl-8-azabicyclo[3.2.1]octan-3-yl)-1-(2,2,2-trifluoroethyl)-1H-pyrrolo[2,3-b]pyridine-3-carboxamide, 2,2,2-trifluoroacetate] | > 1000
22 | CN1[C@@H]2COC[C@H]1CC(NC(=O)c1cn(-c3cccnn3)c3ccccc13)C2 (stereo partly drawn) [Example 117, N-((1R,5S,7S)-9-methyl-3-oxa-9-azabicyclo[3.3.1]nonan-7-yl)-1-(pyridazin-3-yl)-1H-indole-3-carboxamide, 2,2,2-trifluoroacetate] | 0.39
23 | Cn1ccc(-n2cc(C(=O)O[C@H]3C[C@H]4COC[C@@H](C3)N4)c3ccccc32)cc1=O [Example 168, 1R,5S,7s)-3-oxa-9-azabicyclo[3.3.1]nonan-7-yl 1-(1-methyl-2-oxo-1,2-dihydropyridin-4-yl)-1H-indole-3-carboxylate, 2,2,2-trifluoroacetic acid salt] | 1.17

— US9303045B2, “5-HT3 receptor antagonists” (Takeda Pharmaceutical Company Limited, priority 2013, dated 2016)
